The text below walks through data of ChEMBL document CHEMBL3739278, “Synthesis and evaluation of novel N-3-benzimidazolephenylbisamide derivatives for antiproliferative and Hedgehog pathway inhibitory activity” (Medchemcomm, 2015).

Experiment [1] can be described thus: Antiproliferative activity against human […] cells assessed as cell growth inhibition after 48 hrs by MTT assay. The format is functional, cell-based.
For another experiment, the target named is Sonic hedgehog protein (Mus musculus, UniProt Q62226). Put plainly: Inhibition of hedgehog signalling in mouse NIH3T3-Gli-luc cells after 48 hrs by dual luciferase reporter assay. The format is cell-based.
For another experiment, the target named is Protein smoothened (Homo sapiens, UniProt Q99835). Put plainly: Displacement of boron-dipyrromethene-cyclopamine from human smoothened receptor expressed in HEK293 cells incubated for 4 hrs by hSMO-BC binding assay. It is filed as cell-based.
The nature of experiment [2]: Antiproliferative activity against human SW620 cells assessed as cell growth inhibition after 48 hrs by MTT assay. It is filed as functional, cell-based. Conditions: SW-620, 48 h.
Experiment [3] is described as follows: Antiproliferative activity against human MGC803 cells assessed as cell growth inhibition after 48 hrs by MTT assay. It is filed as functional, cell-based. The settings on record: MGC-803, 48 h. In general terms: Tetrazolium dyes change colour on reduction, which living cells bring about.
For the next experiment, the system named is HT-29. Briefly: Antiproliferative activity against human HT-29 cells assessed as cell growth inhibition after 48 hrs by MTT assay. Conditions: HT-29, 48 h. It is filed as functional, cell-based.

pIC50: −log10 of the molar value. A value given as a limit tells only on which side of the number the result lay.

As a reminder, the pIC50 is the negative decadic logarithm of the IC50, by convention in mol/L.

Chain of Sonic hedgehog protein (Q62226 25-198 limits assumed): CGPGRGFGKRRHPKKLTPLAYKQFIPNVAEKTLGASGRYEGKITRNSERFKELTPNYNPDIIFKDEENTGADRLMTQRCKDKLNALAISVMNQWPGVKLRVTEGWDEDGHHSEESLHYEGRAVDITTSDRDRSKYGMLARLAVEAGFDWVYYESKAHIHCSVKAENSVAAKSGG
Chain of Protein smoothened (Q99835 whole entry): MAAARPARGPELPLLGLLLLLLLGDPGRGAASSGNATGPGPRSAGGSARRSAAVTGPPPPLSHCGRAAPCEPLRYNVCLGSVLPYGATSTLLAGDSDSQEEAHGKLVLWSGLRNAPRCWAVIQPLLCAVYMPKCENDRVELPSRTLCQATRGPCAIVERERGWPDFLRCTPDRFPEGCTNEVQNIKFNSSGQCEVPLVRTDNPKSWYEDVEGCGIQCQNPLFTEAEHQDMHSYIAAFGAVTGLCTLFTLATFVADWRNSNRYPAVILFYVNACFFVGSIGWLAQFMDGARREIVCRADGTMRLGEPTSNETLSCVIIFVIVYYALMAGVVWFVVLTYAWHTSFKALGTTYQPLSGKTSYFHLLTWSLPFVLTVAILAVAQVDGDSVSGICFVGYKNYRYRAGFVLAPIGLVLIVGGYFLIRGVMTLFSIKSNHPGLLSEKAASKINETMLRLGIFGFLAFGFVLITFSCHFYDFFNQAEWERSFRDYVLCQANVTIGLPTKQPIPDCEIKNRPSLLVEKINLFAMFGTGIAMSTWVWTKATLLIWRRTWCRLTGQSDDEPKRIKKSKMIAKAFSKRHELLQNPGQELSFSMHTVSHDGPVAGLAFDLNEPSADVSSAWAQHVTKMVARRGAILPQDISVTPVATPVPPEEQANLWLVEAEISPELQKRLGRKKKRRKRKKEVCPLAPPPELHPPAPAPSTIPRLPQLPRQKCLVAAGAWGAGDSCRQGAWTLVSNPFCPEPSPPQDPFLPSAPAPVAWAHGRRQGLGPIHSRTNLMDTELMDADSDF

Turning to `COc1cc(C(=O)NC(=S)Nc2cccc(NC(=O)c3ccccc3)c2)cc(OC)c1OC`, the negative-log IC50 (pIC50) in experiment [1] was 4.86; at Sonic hedgehog protein, 6.19; on Protein smoothened, 6.55; in experiment [2], 4.67; in experiment [3] it was 5.06; in the experiment with HT-29, 5.18.
On to `Cc1ccc(NC(=O)NC(=O)c2ccc(OCc3ccccc3F)cc2)cc1-c1nc2ccccc2[nH]1`, for which the negative-log IC50 (pIC50) was 5.74 in experiment [1], 5.39 in experiment [2], 5.60 in experiment [3] and 6.12 in the experiment on HT-29.
Take `Cc1ccc(NC(=O)NC(=O)c2ccc(OCc3cccc(F)c3)cc2)cc1-c1nc2ccccc2[nH]1`: the pIC50 in experiment [1] is 4.28; in experiment [2], 4.40; in experiment [3], 4.35; in the experiment with HT-29 it was 4.42.
The matching figures for `Cc1ccc(NC(=O)NC(=O)c2ccc(OCc3ccccc3)cc2)cc1-c1nc2ccccc2[nH]1`: 4.45, 4.52, 4.40 and 4.79.
For `Cc1ccc(NC(=O)NC(=O)c2ccc(OCc3ccc(C(F)(F)F)cc3)cc2)cc1-c1nc2ccccc2[nH]1` the same measures were 4.77, 4.82, 4.83 and 5.11.
Regarding `Cc1ccc(NC(=S)NC(=O)c2ccc(OCc3ccc(C(F)(F)F)cc3)cc2)cc1-c1nc2ccccc2[nH]1`, the pIC50 in experiment [1] is 4.99; in experiment [2], 4.14; in experiment [3] it was 5.19; in the experiment on HT-29 it was 4.76.
For `Cc1ccc(COc2ccc(C(=O)NC(=S)Nc3ccc(C)c(-c4nc5ccccc5[nH]4)c3)cc2)cc1` the same measures were 4.95, 4.22, 5.30 and 4.85.
The matching figures for `Cc1ccc(NC(=S)NC(=O)c2ccc(OCc3ccccc3Cl)cc2)cc1-c1nc2ccccc2[nH]1`: 4.29, 4.24, 4.35 and 4.63.
The matching figures for `Cc1ccc(COc2ccc(C(=O)NC(=O)Nc3ccc(C)c(-c4nc5ccccc5[nH]4)c3)cc2)cc1`: 5.20, 4.58, 5.37 and 5.29.
As for `Cc1ccc(NC(=S)NC(=O)c2ccc(OCc3cccc(Cl)c3)cc2)cc1-c1nc2ccccc2[nH]1`, the negative-log IC50 (pIC50) in experiment [1] was 4.36; in experiment [2] it was under 4.00; in experiment [3] it was 4.29; with HT-29, 4.45.
Turning to `Cc1ccc(NC(=S)NC(=O)c2ccc(OCc3ccccc3F)cc2)cc1-c1nc2ccccc2[nH]1`, the pIC50 in experiment [1] was 5.62; on Sonic hedgehog protein, 6.80; in experiment [2], 5.19; in experiment [3], 5.51; in the experiment on HT-29, 5.73.
Regarding `O=C(NC(=O)c1ccc(OCc2ccc(F)cc2)cc1)Nc1ccc(Cl)c(-c2nc3ccccc3[nH]2)c1`, the pIC50 is 6.46 in experiment [1]; 7.49 against Sonic hedgehog protein; 7.38 on Protein smoothened; 4.47 in experiment [2]; 7.21 in experiment [3]; 6.14 with HT-29.
For the molecule `O=C(NC(=S)Nc1ccc(Cl)c(-c2nc3ccccc3[nH]2)c1)c1ccc(OCc2ccc(Cl)c(Cl)c2)cc1`, the pIC50 in experiment [1] was 5.34; in experiment [2], 4.60; in experiment [3] it was 5.29; with HT-29 it was 5.31.
Consider `Cc1ccc(NC(=O)NC(=O)c2ccc(OCc3ccccc3Cl)cc2)cc1-c1nc2ccccc2[nH]1`, for which the negative logarithm of the IC50 (pIC50) in experiment [1] was 4.67; in experiment [2], 4.45; in experiment [3] it was 4.71; in the experiment with HT-29, 5.05.
The matching figures for `Cc1ccc(NC(=O)NC(=O)c2ccc(OCc3cccc(Cl)c3)cc2)cc1-c1nc2ccccc2[nH]1`: 4.55, 4.80, 4.68 and 4.81.
For `Cc1ccc(NC(=S)NC(=O)c2ccc(OCc3ccc(Cl)c(Cl)c3)cc2)cc1-c1nc2ccccc2[nH]1` the same measures were 5.08, 4.51, 5.19 and 5.20.
The matching figures for `Cc1ccc(NC(=S)NC(=O)c2ccc(OCc3ccc(Cl)cc3Cl)cc2)cc1-c1nc2ccccc2[nH]1`: 5.28, 4.24, 5.46 and 4.94.
Turning to `Cc1ccc(COc2ccc(C(=O)NC(=O)Nc3ccc(Cl)c(-c4nc5ccccc5[nH]4)c3)cc2)cc1`, the pIC50 is 5.50 in experiment [1], 4.64 in experiment [2], 5.41 in experiment [3] and 5.53 with HT-29.
For `Cc1ccc(NC(=O)NC(=O)c2ccc(OCc3ccc(Cl)cc3Cl)cc2)cc1-c1nc2ccccc2[nH]1` the same measures were 5.59, 4.91, 5.56 and 5.58.
The matching figures for `Cc1ccc(NC(=S)NC(=O)c2ccc(OCc3ccc(F)cc3)cc2)cc1-c1nc2ccccc2[nH]1`: 5.37, 4.39, 5.55 and 5.72.
For `Cc1ccc(NC(=S)NC(=O)c2ccc(OCc3cccc(Cl)c3Cl)cc2)cc1-c1nc2ccccc2[nH]1` the same measures were under 4.00, under 4.00, under 4.00 and 4.20.
Turning to `Cc1ccc(NC(=S)NC(=O)c2ccc(OCc3cccc(C(F)(F)F)c3)cc2)cc1-c1nc2ccccc2[nH]1`, the pIC50 in experiment [1] was 5.22; in experiment [2], 4.81; in experiment [3] it was 5.28; with HT-29 it was 5.09.
In the case of `Cc1ccc(NC(=O)NC(=O)c2ccc(OCc3ccc(Cl)c(Cl)c3)cc2)cc1-c1nc2ccccc2[nH]1`, the pIC50 in experiment [1] is 5.24; in experiment [2], 5.21; in experiment [3] it was 5.22; in the experiment with HT-29 it was 5.99.
As to `O=C(NC(=O)c1ccc(OCc2ccccc2F)cc1)Nc1ccc(Cl)c(-c2nc3ccccc3[nH]2)c1`, the negative logarithm of the IC50 (pIC50) in experiment [1] is 6.06; against Sonic hedgehog protein, 7.60; at Protein smoothened, 7.72; in experiment [2], 5.53; in experiment [3], 6.92; in the experiment with HT-29, 6.23.
In the case of `Cc1ccc(NC(=S)NC(=O)c2ccc(OCc3ccccc3)cc2)cc1-c1nc2ccccc2[nH]1`, the negative logarithm of the IC50 (pIC50) was 4.24 in experiment [1], 4.17 in experiment [2], 4.22 in experiment [3] and 4.54 in the experiment with HT-29.
As for `Cc1ccc(NC(=O)NC(=O)c2ccc(OCc3ccc(F)cc3)cc2)cc1-c1nc2ccccc2[nH]1`, the pIC50 in experiment [1] was 6.62; against Sonic hedgehog protein, 7.43; in experiment [2] it was 4.45; in experiment [3] it was 6.80; with HT-29, 6.01.
Regarding `Cc1ccc(NC(=O)NC(=O)c2ccc(OCc3cccc(Cl)c3Cl)cc2)cc1-c1nc2ccccc2[nH]1`, the negative logarithm of the IC50 (pIC50) was 4.06 in experiment [1], 4.38 in experiment [2], under 4.00 in experiment [3] and 4.31 with HT-29.
For `O=C(NC(=S)Nc1ccc(Cl)c(-c2nc3ccccc3[nH]2)c1)c1ccc(OCc2ccc(C(F)(F)F)cc2)cc1` the same measures were 5.11, 4.19, 5.27 and 4.89.
For `Cc1ccc(NC(=O)NC(=O)c2ccc(OCc3cccc(C(F)(F)F)c3)cc2)cc1-c1nc2ccccc2[nH]1` the same measures were 5.02, 5.02, 4.88 and 5.45.
The matching figures for `Cc1ccc(NC(=S)NC(=O)c2ccc(OCc3cccc(F)c3)cc2)cc1-c1nc2ccccc2[nH]1`: 4.06, under 4.00, under 4.00 and 4.26.
Turning to `O=C(NC(=S)Nc1ccc(Cl)c(-c2nc3ccccc3[nH]2)c1)c1ccc(OCc2ccc(Cl)cc2Cl)cc1`, the negative logarithm of the IC50 (pIC50) in experiment [1] is 5.43; in experiment [2], 4.30; in experiment [3], 5.52; in the experiment with HT-29, 5.22.
As to `CS(=O)(=O)c1ccc(C(=O)Nc2ccc(Cl)c(-c3ccccn3)c2)c(Cl)c1` [VISMODEGIB], the pIC50 in experiment [1] was 5.54; against Sonic hedgehog protein, 7.89; in experiment [2] it was 4.96; in experiment [3], 5.62; in the experiment on HT-29, 5.97.
